Assay results published in ChEMBL document CHEMBL3045203, “Synthesis and biological evaluation of some N4-substituted 5-nitroisatin-3-thiosemicarbazones” (Med Chem Res, 2012).
Calls of active or inactive are those of the source. The calls are words filed in the database; no cut-off is given here.

Tests used:
Lemna aequinoctialis [1] = assay: Phytotoxicity against Lemna aequinoctialis assessed as growth inhibition at 0.015 ug/ml; assay type: functional; details: read-out: GI
[2] = Inhibition of […] urease using urea as substrate preincubated for 5 min before substrate addition measured after 10 min
Homo sapiens [3] = organism: Homo sapiens; assay: Inhibition of […] urease using urea as substrate at 0.01 uM preincubated for 5 min before substrate addition measured after 10 min relative to control
Homo sapiens [4] = organism: Homo sapiens; assay: Inhibition of […] urease using urea as substrate at 100 uM preincubated for 5 min before substrate addition measured after 10 min relative to control
Nakaseomyces glabratus = assay: Antifungal activity against Candida glabrata at 200 ug/ml after 7 days; assay type: functional; details: 168 h
Lemna aequinoctialis [5] = assay: Phytotoxicity against Lemna aequinoctialis assessed as growth inhibition at 100 ug/ml; assay type: functional; details: read-out: GI
Homo sapiens [6] = organism: Homo sapiens; assay: Inhibition of […] urease using urea as substrate at 0.1 uM preincubated for 5 min before substrate addition measured after 10 min relative to control
Microsporum canis = assay: Antifungal activity against Arthroderma otae at 200 ug/ml after 7 days; assay type: functional; details: 168 h
Lemna aequinoctialis [7] = assay: Phytotoxicity against Lemna aequinoctialis assessed as growth inhibition at 10 ug/ml; assay type: functional; details: read-out: GI
Homo sapiens [8] = organism: Homo sapiens; assay: Inhibition of […] urease using urea as substrate at 1 uM preincubated for 5 min before substrate addition measured after 10 min relative to control
Lemna aequinoctialis [9] = assay: Phytotoxicity against Lemna aequinoctialis assessed as growth inhibition at 1000 ug/ml; assay type: functional; details: read-out: GI
Homo sapiens [10] = organism: Homo sapiens; assay: Inhibition of […] urease using urea as substrate at 10 uM preincubated for 5 min before substrate addition measured after 10 min relative to control
[11] = Toxicity inArtemia salina (brine shrimp) larvae assessed as mortality after 24 hr; assay type: organism-based; details: artemia salina, in vivo; read-out: LD50
Aspergillus flavus = assay: Antifungal activity against Aspergillus flavus at 200 ug/ml after 7 days; assay type: functional; details: 168 h
Fusarium solani = assay: Antifungal activity against Fusarium solani at 200 ug/ml after 7 days; assay type: functional; details: 168 h
Candida albicans = assay: Antifungal activity against Candida albicans at 200 ug/ml after 7 days; assay type: functional; details: 168 h
Homo sapiens [12] = organism: Homo sapiens; assay: Increase of […] urease using urea as substrate at 100 uM preincubated for 5 min before substrate addition measured after 10 min relative to control
Homo sapiens [13] = organism: Homo sapiens; assay: Increase of […] urease using urea as substrate at 10 uM preincubated for 5 min before substrate addition measured after 10 min relative to control
Homo sapiens [14] = organism: Homo sapiens; assay: Increase of […] urease using urea as substrate at 0.01 uM preincubated for 5 min before substrate addition measured after 10 min relative to control
Homo sapiens [15] = organism: Homo sapiens; assay: Increase of […] urease using urea as substrate at 0.1 uM preincubated for 5 min before substrate addition measured after 10 min relative to control
Homo sapiens [16] = organism: Homo sapiens; assay: Increase of […] urease using urea as substrate at 1 uM preincubated for 5 min before substrate addition measured after 10 min relative to control
Lemna aequinoctialis [17] = assay: Phytotoxicity against Lemna aequinoctialis assessed as growth inhibition at 500 ug/ml; assay type: functional; details: read-out: GI
Lemna aequinoctialis [18] = assay: Phytotoxicity against Lemna aequinoctialis assessed as growth inhibition at 5 ug/ml; assay type: functional; details: read-out: GI
Lemna aequinoctialis [19] = assay: Phytotoxicity against Lemna aequinoctialis assessed as growth inhibition at 50 ug/ml; assay type: functional; details: read-out: GI

SMILES	inhibition (Homo sapiens [3]) [%]	inhibition (Homo sapiens [4]) [%]	inhibition at 200 µg/mL (Nakaseomyces glabratus) [%]	inhibition of growth at 100 µg/mL (Lemna aequinoctialis [5]) [%]	inhibition (Homo sapiens [6])	inhibition at 200 µg/mL (Microsporum canis) [%]	inhibition of growth at 10 µg/mL (Lemna aequinoctialis [7]) [%]	inhibition (Homo sapiens [8]) [%]	inhibition of growth at 1000 µg/mL (Lemna aequinoctialis [9]) [%]	inhibition (Homo sapiens [10])	LC50 at 24 h [11] [mM]	inhibition at 200 µg/mL (Aspergillus flavus) [%]	inhibition at 200 µg/mL (Fusarium solani) [%]	inhibition at 200 µg/mL (Candida albicans) [%]	other results
C[n+]1ccc(-c2cc[n+](C)cc2)cc1 [PARAQUAT]															inhibition of growth at 0.015 µg/mL (Lemna aequinoctialis [1]): 100%
COc1ccc(NC(=S)N/N=C2\C(=O)Nc3ccc([N+](=O)[O-])cc32)c(OC)c1	68	37.9	0	25	66.8%	20	15	61	30	53.5%	> 1.24	20	0	0	IC50 [2]: 0.0279 mM
COc1ccc(NC(=S)N/N=C2\C(=O)Nc3ccc([N+](=O)[O-])cc32)cc1	47.6	46.6	0	15	44%	0	10	33.6	25	38.6%	> 1.34	20	0	0	
O=C1Nc2ccc([N+](=O)[O-])cc2/C1=N/NC(=S)Nc1ccc(F)cc1			0	15		20	5		20		> 1.39	0	20	0	Activity (Homo sapiens [12]): inactive; Activity (Homo sapiens [13]): inactive; Activity (Homo sapiens [14]): inactive; Activity (Homo sapiens [15]): inactive; Activity (Homo sapiens [16]): inactive
N#Cc1cccc(NC(=S)N/N=C2\C(=O)Nc3ccc([N+](=O)[O-])cc32)c1	20.7	8.9	0	15	16%	20	5	1.8	25	12.6%	1.16	20	15	0	
O=C1Nc2ccc([N+](=O)[O-])cc2/C1=N/NC(=S)Nc1ccccc1	8.8	6	0		5.8%	0		0.65		inactive	> 1.47	20	0	0	inhibition of growth at 500 µg/mL (Lemna aequinoctialis [17]): 20%; inhibition of growth at 5 µg/mL (Lemna aequinoctialis [18]): 5%; inhibition of growth at 50 µg/mL (Lemna aequinoctialis [19]): 10%
C=CCNC(=S)N/N=C1\C(=O)Nc2ccc([N+](=O)[O-])cc21	21.6	15.9	0	35	15%	20	25	12	50	8%	> 1.63	0	0	0	
Cc1ccc(NC(=S)N/N=C2\C(=O)Nc3ccc([N+](=O)[O-])cc32)cc1	8	7	0	20	inactive	40	15	4	30	4%	> 1.4	30	30	0	
O=C1Nc2ccc([N+](=O)[O-])cc2/C1=N/NC(=S)Nc1ccc(Br)cc1	18.9	4	0	15	4.5%	0	10	6.6	20	8%	> 1.19	20	0	0	
COc1ccc(OC)c(NC(=S)N/N=C2\C(=O)Nc3ccc([N+](=O)[O-])cc32)c1	34.5	11	0	30	25.9%	20	25	15.6	35	17.8%	> 1.24	40	0	0	
CCCCCCNC(=S)N/N=C1\C(=O)Nc2ccc([N+](=O)[O-])cc21	60	40.9	0	35	58%	50	25	37	60	27%	> 1.43	0	0	0	IC50 [2]: 0.00044 mM
NC(N)=S [THIOUREA]	8.16	94.3			14.5%			20.9		8.09%					IC50 [2]: 0.0501 mM
O=C1Nc2ccc([N+](=O)[O-])cc2/C1=N/NC(=S)Nc1ccc(I)cc1	57	50	0	10	51%	0	5	52	25	47%	> 1.07	0	0	0	IC50 [2]: 0.000901 mM
Cc1cccc(NC(=S)N/N=C2\C(=O)Nc3ccc([N+](=O)[O-])cc32)c1	6.5	34	0	20	5.8%	0	10	13.9	25	22%	> 1.4	0	30	0	
O=C1Nc2ccc([N+](=O)[O-])cc2/C1=N/NC(=S)Nc1ccccc1C(F)(F)F	21.6	21	0	15	23%	20	10	30.9	25	20.9%	> 1.22	0	0	0	
